Counter-ions that a name gives are not always drawn.

`O=C(N[C@H]1CCN(CCc2ccc(C(F)(F)F)cc2)C1)C12CC3CC(CC(C3)C1)C2` (as salt: hydrochloride) (hydrate or solvate) [Example 5, (S)-N-(1-(2-(4-trifluoromethylphenyl)ethyl)pyrrolidin-3-yl)-1-adamantanecarboxamide]: the melting point lay within 214 to 215 °C. `O=C(N[C@H]1CCN(CCc2cccc(C(F)(F)F)c2)C1)C12CC3CC(CC(C3)C1)C2` (as salt: hydrochloride) (hydrate or solvate) [Example 11, (S)-N-(1-(2-(3-trifluoromethylphenyl)ethyl)pyrrolidin-3-yl)-1-adamantanecarboxamide] yielded a melting point of 160 to 163 °C. In turn, `O=C(N[C@H]1CCN(CCc2ccccc2C(F)(F)F)C1)C12CC3CC(CC(C3)C1)C2` (as salt: hydrochloride) (hydrate or solvate) [Example 12, (S)-N-(1-(2-(2-trifluoromethylphenyl)ethyl)pyrrolidin-3-yl)-1-adamantanecarboxamide] came in with a melting point of 127 to 128 °C. In the case of `O=C(N[C@H]1CCN(CC2Cc3ccccc3C2)C1)C12CC3CC(CC(C3)C1)C2` (as salt: hydrochloride) (hydrate or solvate) [Example 18, (S)-N-(1-((2,3-dihydroinden-2-yl)methyl)pyrrolidin-3-yl)-1-adamantanecarboxamide] it was 241 to 243 °C. Take `O=C(N[C@H]1CCN(CC2CCCc3ccccc32)C1)C12CC3CC(CC(C3)C1)C2` (stereo partly drawn) (as salt: hydrochloride) (hydrate or solvate) [Example 20, (S)-N-(1-((1,2,3,4-tetrahydronaphthalen-1-yl)methyl)pyrrolidin-3-yl)-1-adamantanecarboxamide]: the melting point lay within 140 to 142 °C. For `O=C(N[C@H]1CCN(C2Cc3ccccc3C2)C1)C12CC3CC(CC(C3)C1)C2` (as salt: hydrochloride) (hydrate or solvate) [Example 22, (S)-N-(1-(2,3-dihydroinden-2-yl)pyrrolidin-3-yl)-1-adamantanecarboxamide] the value was 278 to 279 °C.

Consider `O=C(N[C@H]1CCN(CCc2ccccc2)C1)NC12CC3CC(CC(C3)C1)C2` (as salt: hydrochloride) (hydrate or solvate) [Example 51, (S)-1-(1-adamantyl)-3-(1-(2-phenylethyl)pyrrolidin-3-yl)urea], for which the melting point is 201 to 202 °C. For `CN(C(=O)C12CC3CC(CC(C3)C1)C2)[C@H]1CCN(CCc2ccc(F)cc2)C1` (as salt: hydrochloride) (hydrate or solvate) [Example 56, (S)-N-methyl-N-(1-(2-(4-fluorophenyl)ethyl)pyrrolidin-3-yl)-1-adamantanecarboxamide] the value was 253 to 254 °C; for `CN(C(=O)C12CC3CC(CC(C3)C1)C2)[C@H]1CCN(CCc2cccc(F)c2)C1` (as salt: hydrochloride) (hydrate or solvate) [Example 65, (S)-N-methyl-N-(1-(2-(3-fluorophenyl)ethyl)pyrrolidin-3-yl)-1-adamantanecarboxamide], 252 to 253 °C; for `CN(C(=O)C12CC3CC(CC(C3)C1)C2)[C@@H]1CCN(CCc2ccc(F)cc2)C1` (as salt: hydrochloride) (hydrate or solvate) [Example 68, (R)-N-methyl-N-(1-(2-(4-fluorophenyl)ethyl)pyrrolidin-3-yl)-1-adamantanecarboxamide], 264 to 265 °C. On to `O=C(NC1CCN(CCc2ccc(F)cc2)C1)N1CC2CC3CC1C[C@@H](C3)C2` (stereo partly drawn) (as salt: hydrochloride) (hydrate or solvate) [Example 69, (S)-N-(1-(2-(4-fluorophenyl)ethyl)pyrrolidin-3-yl)-(4-azatricyclo[4.3.1.1(3,8)]undecan-4-yl)carboxamide], for which the melting point was 110 to 113 °C (dec.).

For `O=C(N[C@H]1CCN(C[C@H](O)c2ccccc2)C1)C12CC3CC(CC(C3)C1)C2` (as salt: hydrochloride) (hydrate or solvate) [Example 70, (S)-N-(1-((R)-2-hydroxy-2-phenylethyl)pyrrolidin-3-yl)-1-adamantanecarboxamide], the melting point lay in the range of 139 to 141 °C. `O=C(N[C@H]1CCN(C[C@@H](O)c2ccccc2)C1)C12CC3CC(CC(C3)C1)C2` (as salt: hydrochloride) (hydrate or solvate) [Example 71, (S)-N-(1-((S)-2-hydroxy-2-phenylethyl)pyrrolidin-3-yl)-1-adamantanecarboxamide] registered a melting point of 149 to 151 °C. In the case of `CN(C(=O)C12CC3CC(CC(C3)C1)C2)[C@H]1CCN(CCc2ccccc2F)C1` (as salt: hydrochloride) [Example 66, (S)-N-methyl-N-(1-(2-(2-fluorophenyl)ethyl)pyrrolidin-3-yl)-1-adamantanecarboxamide] it was 241 to 242 °C; in that of `O=C(N[C@H]1CCN(CCc2ccc(F)cc2)C1)C(c1ccccc1)c1ccccc1` (as salt: oxalate) (hydrate or solvate) [Example 24, (S)-N-(1-(2-(4-fluorophenyl)ethyl)pyrrolidin-3-yl)diphenylacetamide], 156 to 158 °C.

The compound `O=C(N[C@H]1CCN(CCc2ccccc2)C1)C(c1ccccc1)c1ccccc1` (as salt: oxalate) [Example 23, (S)-N-(1-(2-phenylethyl)pyrrolidin-3-yl)diphenylacetamide] returned a melting point of 191 to 192 °C.

`O=C(N[C@H]1CCN(CCc2ccccc2)C1)C12CC3CC(CC(C3)C1)C2` [Example 1, (S)-N-(1-(2-phenylethyl)pyrrolidin-3-yl)-1-adamantanecarboxamide] came in with a melting point of 119 to 121 °C.

Take `O=C(N[C@H]1CCN(CCc2ccc(Cl)cc2)C1)C12CC3CC(CC(C3)C1)C2` [Example 3, (S)-N-(1-(2-(4-chlorophenyl)ethyl)pyrrolidin-3-yl)-1-adamantanecarboxamide]: the melting point fell in the range of 94 to 95 °C. In the case of `COc1ccc(CCN2CC[C@H](NC(=O)C34CC5CC(CC(C5)C3)C4)C2)cc1` [Example 4, (S)-N-(1-(2-(4-methoxyphenyl)ethyl)pyrrolidin-3-yl)-1-adamantanecarboxamide] it was 81 to 83 °C. For the compound `N#Cc1ccc(CCN2CC[C@H](NC(=O)C34CC5CC(CC(C5)C3)C4)C2)cc1` [Example 6, (S)-N-(1-(2-(4-cyanophenyl)ethyl)pyrrolidin-3-yl)-1-adamantanecarboxamide], the melting point was 104 to 105 °C. For `O=C(N[C@H]1CCN(CCc2cccc(F)c2)C1)C12CC3CC(CC(C3)C1)C2` [Example 9, (S)-N-(1-(2-(3-fluorophenyl)ethyl)pyrrolidin-3-yl)-1-adamantanecarboxamide] the value was 87 to 89 °C; for `O=C(N[C@H]1CCN(CCc2ccccc2F)C1)C12CC3CC(CC(C3)C1)C2` [Example 10, (S)-N-(1-(2-(2-fluorophenyl)ethyl)pyrrolidin-3-yl)-1-adamantanecarboxamide], 106 to 108 °C; for `O=C(N[C@H]1CCN(Cc2ccccc2)C1)C12CC3CC(CC(C3)C1)C2` [Example 13, (S)-N-(1-benzylpyrrolidin-3-yl)-1-adamantanecarboxamide], 130 to 132 °C.

The compound `O=C(N[C@H]1CCN(CCCc2ccccc2)C1)C12CC3CC(CC(C3)C1)C2` [Example 14, (S)-N-(1-(3-phenylpropyl)pyrrolidin-3-yl)-1-adamantanecarboxamide] registered a melting point of 118 to 120 °C. In the case of `O=C(N[C@H]1CCN(CCCc2ccc(F)cc2)C1)C12CC3CC(CC(C3)C1)C2` [Example 15, (S)-N-(1-(3-(4-fluorophenyl)propyl)pyrrolidin-3-yl)-1-adamantanecarboxamide] it was 114 to 115 °C. `O=C(N[C@H]1CCN(CCCc2ccc(Cl)cc2)C1)C12CC3CC(CC(C3)C1)C2` [Example 16, (S)-N-(1-(3-(4-chlorophenyl)propyl)pyrrolidin-3-yl)-1-adamantanecarboxamide] showed a melting point of 117 to 119 °C.

As for `O=C(N[C@H]1CCN(CCCCc2ccccc2)C1)C12CC3CC(CC(C3)C1)C2` [Example 17, (S)-N-(1-(4-phenylbutyl)pyrrolidin-3-yl)-1-adamantanecarboxamide], the melting point fell in the range of 82 to 84 °C. As to `O=C(N[C@H]1CCN(CCc2ccc(F)cc2)C1)C(C1CCCCC1)C1CCCCC1` [Example 26, (S)-N-(1-(2-(4-fluorophenyl)ethyl)pyrrolidin-3-yl)dicyclohexylacetamide], the melting point was in the range of 122 to 124 °C. For `O=C(Cc1ccccc1C1CCCC1)N[C@H]1CCN(CCc2ccccc2)C1` [Example 27, N-((S)-1-(2-phenylethyl)pyrrolidin-3-yl)-2-cyclopentylphenylacetamide] the value was 117 to 119 °C.

Consider `O=C(N[C@H]1CCN(CCc2ccc(F)cc2)C1)C1=c2ccccc2=CC=C2CC=CC=C21` [Example 36, (S)-N-(1-(2-(4-fluorophenyl)ethyl)pyrrolidin-3-yl)dibenzo[a,d]cycloheptene-5-carboxamide], for which the melting point was in the range of 127 to 128 °C. `O=C(N[C@H]1CCN(CCc2ccc(F)cc2)C1)N(C1CCCCC1)C1CCCCC1` [Example 48, (S)-1,1-dicyclohexyl-3-(1-(2-(4-fluorophenyl)ethyl)pyrrolidin-3-yl)urea] gave a melting point of 97 to 98 °C. In the case of `O=C(N[C@@H]1CCN(CCc2ccccc2)C1)C12CC3CC(CC(C3)C1)C2` [Example 63, (R)-N-(1-(2-phenylethyl)pyrrolidin-3-yl)-1-adamantanecarboxamide] it was 118 to 120 °C; in that of `O=C(N[C@H]1CCN(CCc2ccc(F)cc2)C1)n1c2ccccc2c2ccccc21` [Example 72, (S)-N-(1-(2-(4-fluorophenyl)ethyl)pyrrolidin-3-yl)carbazole-9-carboxamide], 107 to 108 °C; in that of `O=C(N[C@H]1CCN(CCc2ccc(F)cc2)C1)C(c1cccs1)c1cccs1` [Example 73, (S)-2,2-di(2-thienyl)-N-(1-(2-(4-fluorophenyl)ethyl)pyrrolidin-3-yl)acetamide], 96 to 98 °C. For `O=C(N[C@H]1CCN(CCc2ccc(F)cc2)C1)C(c1ccccc1F)c1ccccc1F` [Example 74, (S)-2,2-bis(2-fluorophenyl)-N-(1-(2-(4-fluorophenyl)ethyl)pyrrolidin-3-yl)acetamide] the value was 107 to 108 °C.

As usually defined, the melting point is the temperature, or range, at which the solid turns liquid.

Values taken from US6468998B1, “Pyrrolidine compounds and medicinal utilization thereof” (Mitsubishi Pharma Corporation, priority 1998, dated 2002).
